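The compound was tested at five concentrations on cells cultured in 96-well plates, with a 48-hour exposure period. GI50: concentration for 50% inhibition of growth. At the TGI there is no net growth.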

Among the test systems are A549 NSCLC; COLO 205 colon; HT29 colon; K-562 leukemia; KM12 colon; MALME-3M melanoma; NCI-H23 lung; SK-MEL-2 melanoma; SNB-19 CNS; UACC-62 melanoma.
Assay in all cases: NCI-60 cell line screen, 48 h

For the compound `CC(C)c1c(O)c(O)c2c(c1O)C(=O)C(O)=C1C(C)(C)CCC[C@@]12C`, the TGI in the experiment on A549 NSCLC stood at 14.3 µM; with COLO 205 colon, 3.6 µM; in the experiment with HT29 colon, 10.2 µM; in the experiment with K-562 leukemia, 9.69 µM; in the experiment on KM12 colon it was 12.2 µM; in the experiment with MALME-3M melanoma, 15.9 µM. In addition, the TGI in the experiment on NCI-H23 lung was determined as 13.8 µM; in the experiment on SK-MEL-2 melanoma, 13.9 µM; with SNB-19 CNS it was 22.1 µM; with UACC-62 melanoma it was 16.1 µM.

As to `Nc1ccccc1C#C/C=C\C#Cc1ccccc1N`, the GI50 in the experiment on A549 NSCLC is 41.5 µM; in the experiment on COLO 205 colon, 31.3 µM; with HT29 colon, 32 µM; in the experiment on K-562 leukemia, 0.583 µM; in the experiment with KM12 colon, 3.26 µM; in the experiment on MALME-3M melanoma, 7.86 µM. Further, the GI50 in the experiment with NCI-H23 lung is 18.6 µM; with SK-MEL-2 melanoma, 16.3 µM; in the experiment on SNB-19 CNS it was 48.9 µM; in the experiment on UACC-62 melanoma, 11.4 µM. In addition, the TGI was greater than 100 µM in the experiment with A549 NSCLC; greater than 100 µM with COLO 205 colon; greater than 100 µM in the experiment on HT29 colon; 14.2 µM in the experiment on K-562 leukemia; 27.6 µM with KM12 colon; 32.9 µM in the experiment with MALME-3M melanoma. The TGI with NCI-H23 lung is 62.9 µM; with SK-MEL-2 melanoma, 60.7 µM; in the experiment on SNB-19 CNS it was greater than 100 µM; in the experiment on UACC-62 melanoma it was 27.5 µM.

As for `CCOC(=O)/C(C)=C(/O)C(=O)OCC`, the TGI with A549 NSCLC, with COLO 205 colon, in the experiment on HT29 colon, in the experiment with K-562 leukemia, in the experiment on KM12 colon and in the experiment with MALME-3M melanoma was greater than 100 µM each time. Further, the TGI in the experiment with NCI-H23 lung, in the experiment on SK-MEL-2 melanoma, in the experiment with SNB-19 CNS and in the experiment with UACC-62 melanoma was greater than 100 µM throughout.

In the case of `COc1cc2[nH]c3c(c2cc1OC)CCN[C@]31CC[C@]2(CC3c4c(cc(OC)c(O)c42)CCN3C)C[C@H]1OC` (stereo not given in full), the TGI amounted to 68.8 µM in the experiment with A549 NSCLC; 27.3 µM with COLO 205 colon; 63.3 µM in the experiment with HT29 colon; 23.7 µM with K-562 leukemia; 35.6 µM with KM12 colon; 36.3 µM with MALME-3M melanoma. Besides, the TGI was greater than 100 µM in the experiment with NCI-H23 lung, greater than 100 µM in the experiment on SNB-19 CNS and 49 µM with UACC-62 melanoma.

Consider `CC(=O)C1Cn2c(nc3ccccc32)C[Se]1` (stereo not given), for which the TGI turned out to be 36.2 µM in the experiment with A549 NSCLC; 30.1 µM with COLO 205 colon; 23.2 µM in the experiment with HT29 colon; 31.7 µM in the experiment on K-562 leukemia; 10.7 µM in the experiment with KM12 colon; 5.83 µM with MALME-3M melanoma. Also, the TGI in the experiment on NCI-H23 lung turned out to be 7.29 µM; in the experiment on SNB-19 CNS, 16 µM; in the experiment with UACC-62 melanoma, 3.64 µM.

Regarding `COc1ccc(/C=C/c2c(C(=O)/C=C/c3ccccc3)c(C)nc3ccccc23)cc1`, the GI50 in the experiment with COLO 205 colon is 1.76 µM; in the experiment with HT29 colon, 2.4 µM; in the experiment with K-562 leukemia, 2.33 µM; in the experiment on KM12 colon it was 1.77 µM; in the experiment on MALME-3M melanoma, 1.74 µM; in the experiment on NCI-H23 lung it was 1.73 µM. The GI50 in the experiment on SK-MEL-2 melanoma is 2.11 µM; in the experiment with SNB-19 CNS, 1.66 µM; in the experiment on UACC-62 melanoma, 1.61 µM. Also, the TGI was 3.5 µM in the experiment on COLO 205 colon; greater than 100 µM in the experiment with HT29 colon; 7.19 µM in the experiment on K-562 leukemia; 3.52 µM in the experiment with KM12 colon; 3.2 µM in the experiment on MALME-3M melanoma; 4.19 µM in the experiment on NCI-H23 lung. Also, the results for the TGI with SK-MEL-2 melanoma, in the experiment on SNB-19 CNS and with UACC-62 melanoma were 5.06 µM, 3.07 µM and 3.11 µM, respectively.

Turning to `COC(=O)C(CC(=O)Nc1ccc(C)cc1)C(=O)C(=O)Nc1c(C(C)C)cccc1C(C)C` (stereo not given), the TGI with A549 NSCLC, with COLO 205 colon, in the experiment on K-562 leukemia, in the experiment on MALME-3M melanoma, in the experiment with NCI-H23 lung and in the experiment on SK-MEL-2 melanoma was greater than 100 µM each time. Moreover, the TGI in the experiment with SNB-19 CNS and in the experiment on UACC-62 melanoma was greater than 100 µM throughout.

On to `O=C1c2cccnc2-c2nc(-c3ccc(Cl)cc3)cc3c2c1nc1ccccc13`, for which the GI50 in the experiment on A549 NSCLC was 35.6 µM; with COLO 205 colon, greater than 100 µM; in the experiment with K-562 leukemia it was 38.7 µM; in the experiment with KM12 colon, 41 µM; in the experiment with MALME-3M melanoma, 20.2 µM; with SK-MEL-2 melanoma, 76.5 µM. Moreover, the GI50 with SNB-19 CNS was greater than 100 µM; with UACC-62 melanoma it was 76 µM. Also, the TGI with A549 NSCLC was greater than 100 µM; in the experiment with COLO 205 colon, greater than 100 µM; with K-562 leukemia, greater than 100 µM; in the experiment on KM12 colon it was greater than 100 µM; with MALME-3M melanoma, 91.5 µM; in the experiment with SK-MEL-2 melanoma, greater than 100 µM. For the same compound, the TGI in the experiment with SNB-19 CNS and in the experiment with UACC-62 melanoma was greater than 100 µM each time.

Consider `Cc1cc(NC(=S)SCc2ccc(F)cc2)c([N+](=O)[O-])cc1C`, for which the TGI is greater than 100 µM with A549 NSCLC; 37.2 µM in the experiment with COLO 205 colon; 34.6 µM in the experiment on HT29 colon; greater than 100 µM in the experiment on K-562 leukemia; 44.6 µM in the experiment with KM12 colon; 77.7 µM with MALME-3M melanoma. In addition, the TGI was found to be 99.4 µM in the experiment with NCI-H23 lung, 77.1 µM in the experiment on SNB-19 CNS and 31.3 µM in the experiment with UACC-62 melanoma.

Take `CCNCCNc1cc(-c2ccc(C(F)(F)F)cc2)c(C#N)c2nc3ccccc3n12`: the GI50 in the experiment on A549 NSCLC was 1.75 µM; in the experiment on COLO 205 colon, 1.01 µM; in the experiment with HT29 colon it was 0.365 µM; with KM12 colon, 1.51 µM; with MALME-3M melanoma it was 1.74 µM; in the experiment with NCI-H23 lung, 1.62 µM. Further, the values for the GI50 in the experiment on SK-MEL-2 melanoma, in the experiment on SNB-19 CNS and in the experiment with UACC-62 melanoma were 2.03 µM, 1.72 µM and 0.496 µM, respectively. Also, the TGI was found to be 3.41 µM in the experiment on A549 NSCLC; 2.41 µM in the experiment on COLO 205 colon; 1.29 µM in the experiment on HT29 colon; 3.07 µM with KM12 colon; 3.34 µM with MALME-3M melanoma; 3.25 µM with NCI-H23 lung. Moreover, the TGI in the experiment on SK-MEL-2 melanoma was 3.87 µM; in the experiment with SNB-19 CNS, 3.32 µM; with UACC-62 melanoma it was 1.82 µM.

With `C=C(C)[C@@H]1CC[C@]2(CO)CC[C@]3(C)[C@H](CC[C@@H]4[C@@]5(C)C=C(C#N)C(=O)C(C)(C)[C@@H]5CC[C@]43C)[C@@H]12`, the GI50 in the experiment with A549 NSCLC is 1.56 µM; with COLO 205 colon it was 1.38 µM; in the experiment with HT29 colon, 1.16 µM; in the experiment with K-562 leukemia, 2.2 µM; with MALME-3M melanoma, 1.4 µM; in the experiment on NCI-H23 lung, 2 µM. The GI50 in the experiment on SK-MEL-2 melanoma was 1.91 µM; in the experiment with SNB-19 CNS, 1.58 µM; in the experiment on UACC-62 melanoma it was 0.72 µM. The TGI with A549 NSCLC was 3.5 µM; in the experiment with COLO 205 colon, 2.72 µM; with HT29 colon, 4.76 µM; in the experiment on K-562 leukemia, greater than 100 µM; with MALME-3M melanoma, 3.82 µM; in the experiment with NCI-H23 lung it was 6.05 µM. Also, the TGI with SK-MEL-2 melanoma is 4.59 µM; in the experiment with SNB-19 CNS it was 4.08 µM; in the experiment with UACC-62 melanoma it was 2.44 µM.

The record behind these values is PubChem BioAssay (NCI).
